Assay results from patent publication US20250366503A1, “NOVEL GLUCOPYRANOSIDE COMPOSITIONS FOR SWEETNESS ENHANCEMENT” (International Flavors & Fragrances Inc., priority 2022, published 2025).

Test: Sweetness enhancement of sucrose by isolated compounds (flavor profile)
Conditions: for Flavor Profile: 6% sucrose in water; for Sweetness and sugary mouthfeel enhancement: summary statement; for Enhancement of the sweetness of sweetness modifiers: general statement
Experimental: A sucrose solution (6%) was prepared in water and used as the base solution. Sucrose solutions of lipedoside B-IIIb, ligurobustoside E, ligurobustoside C, CPD5, ligurobustoside K ligurobustoside I and CPD6 were each prepared at 0.1-2 ppm. Flavor profiles of the sucrose solutions with added lipedoside B-IIIb, ligurobustoside E, ligurobustoside C, CPD5, ligurobustoside K and CPD6 are reported in the following: […]

Molecule	Flavor Profile (compound 2 ppm)	Sweetness and sugary mouthfeel enhancement	Enhancement of the sweetness of sweetness modifiers	Flavor Profile (compound 0.1 ppm)	Flavor Profile (compound 1 ppm)
ligurobustoside K	Weak sweetness and mouthfeel enhancement	mild sweetness and sugary mouthfeel enhancement	–	–	–
C=CC(C)(CCC=C(C)C)O[C@@H]1O[C@H](CO)[C@@H](OC(=O)/C=C/c2ccc(O)c(O)c2)[C@H](O[C@@H]2O[C@@H](C)[C@H](O)[C@@H](O)[C@H]2O)[C@H]1O (stereo partly drawn) [CPD5, (2R,3R,4R,5R,6S)-6-((3,7-dimethylocta-1,6-dien-3-yl)oxy)-5-hydroxy-2-(hydroxymethyl)-4-(((2S,3R,4R,5R,6S)-3,4,5-trihydroxy-6-methyltetrahydro-2H-pyran-2-yl)oxy)tetrahydro-2H-pyran-3-yl (E)-3-(3,4-dihydroxyphenyl)acrylate]	Moderate sweetness and mouthfeel enhancement	–	enhance the sweetness of sweetness modifiers without undesirable off-notes	–	–
lipedoside B-IIIb	Strong upfront sweetness and sugary mouthfeel	particularly strong sweetness and sugary mouthfeel enhancement	enhance the sweetness of sweetness modifiers without undesirable off-notes	Slight sweetness enhancement, lingering sweetness	Sweetness enhancement, lingering sweetness
CC(C)=CCC/C(C)=C/CO[C@@H]1O[C@H](COC(=O)/C=C/c2ccc(O)cc2)[C@@H](O)[C@H](O[C@@H]2O[C@@H](C)[C@H](O)[C@@H](O)[C@H]2O)[C@H]1O [Ligurobustoside E, ligurobustoside E]	–	particularly strong sweetness and sugary mouthfeel enhancement	enhance the sweetness of sweetness modifiers without undesirable off-notes	Sweetness enhancement, lingering sweetness	Upfront sweetness, lingering sweetness
CC(C)=CCC/C(C)=C/CO[C@@H]1O[C@H](CO)[C@@H](OC(=O)/C=C/c2ccc(O)cc2)[C@H](O[C@@H]2O[C@@H](C)[C@H](O)[C@@H](O)[C@H]2O)[C@H]1O [Ligurobustoside C, ligurobustoside C]	Some upfront sweetness and mouthfeel enhancement	–	enhance the sweetness of sweetness modifiers without undesirable off-notes	–	–
CC(C)=CC(=O)/C=C(\C)CCO[C@@H]1O[C@H](CO)[C@@H](OC(=O)/C=C/c2ccc(O)cc2)[C@H](O[C@@H]2O[C@@H](C)[C@H](O)[C@@H](O)[C@H]2O)[C@H]1O [CPD6, (2R,3R,4R,5R,6R)-6-(((E)-3,7-dimethyl-5-oxoocta-3,6-dien-1-yl)oxy)-5-hydroxy-2-(hydroxymethyl)-4-(((2S,3R,4R,5R,6S)-3,4,5-trihydroxy-6-methyltetrahydro-2H-pyran-2-yl)oxy)tetrahydro-2H-pyran-3-yl (E)-3-(4-hydroxyphenyl)acrylate]	Weak lingering sweetness and mouthfeel enhancement	mild sweetness and sugary mouthfeel enhancement	–	–	–
C/C(=C\CO[C@@H]1O[C@H](CO)[C@@H](OC(=O)/C=C/c2ccc(O)cc2)[C@H](O[C@@H]2O[C@@H](C)[C@H](O)[C@@H](O)[C@H]2O)[C@H]1O)C/C=C\C(C)(C)O [ligurobustoside I]	Weak sweetness and mouthfeel enhancement	mild sweetness and sugary mouthfeel enhancement	–	–	–
